Measured values as given in ChEMBL document CHEMBL1649074, “Aurora kinase inhibitors based on the imidazo[1,2-a]pyrazine core: fluorine and deuterium incorporation improve oral absorption and exposure” (J Med Chem, 2011).

Key:
[1] = molecular target: Serine/threonine-protein kinase PLK3 (Homo sapiens, UniProt Q9H4B4); assay: Inhibition of PLK3
[2] = molecular target: T1, Calcium/calmodulin-dependent protein kinase type IV (Homo sapiens, UniProt Q16566); assay: Inhibition of CAMK4
T1 sequence (Q16566 whole entry): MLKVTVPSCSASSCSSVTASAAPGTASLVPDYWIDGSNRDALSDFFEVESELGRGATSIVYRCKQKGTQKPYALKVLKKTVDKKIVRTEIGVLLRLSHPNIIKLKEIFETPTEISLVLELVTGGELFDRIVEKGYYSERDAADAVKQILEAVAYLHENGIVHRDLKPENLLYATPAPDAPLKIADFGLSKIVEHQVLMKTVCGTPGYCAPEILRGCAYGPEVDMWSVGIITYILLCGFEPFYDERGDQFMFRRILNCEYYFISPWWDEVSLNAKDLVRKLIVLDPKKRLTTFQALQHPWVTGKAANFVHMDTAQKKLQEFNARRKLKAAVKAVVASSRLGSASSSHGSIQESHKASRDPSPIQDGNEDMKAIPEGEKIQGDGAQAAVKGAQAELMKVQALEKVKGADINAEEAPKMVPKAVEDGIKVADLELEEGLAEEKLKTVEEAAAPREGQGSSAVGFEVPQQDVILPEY

[3] = molecular target: T2, Aurora kinase A (Homo sapiens, UniProt O14965); assay: Inhibition of Aurora A
T2 sequence (O14965 whole entry): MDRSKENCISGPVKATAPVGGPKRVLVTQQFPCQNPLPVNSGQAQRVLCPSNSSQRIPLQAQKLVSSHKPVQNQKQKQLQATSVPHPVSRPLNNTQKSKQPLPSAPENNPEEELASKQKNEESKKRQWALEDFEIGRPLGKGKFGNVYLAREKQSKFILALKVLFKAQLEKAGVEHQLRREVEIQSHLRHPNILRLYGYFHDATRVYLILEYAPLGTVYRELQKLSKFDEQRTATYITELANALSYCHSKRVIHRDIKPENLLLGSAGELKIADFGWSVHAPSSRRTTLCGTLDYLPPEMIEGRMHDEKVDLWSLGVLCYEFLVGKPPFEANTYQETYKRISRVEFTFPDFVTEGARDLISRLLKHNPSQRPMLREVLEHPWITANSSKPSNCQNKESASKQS

[4] = molecular target: T3, Ephrin type-B receptor 4 (Homo sapiens, UniProt P54760); assay: Inhibition of EPHB4
T3 sequence (P54760 whole entry): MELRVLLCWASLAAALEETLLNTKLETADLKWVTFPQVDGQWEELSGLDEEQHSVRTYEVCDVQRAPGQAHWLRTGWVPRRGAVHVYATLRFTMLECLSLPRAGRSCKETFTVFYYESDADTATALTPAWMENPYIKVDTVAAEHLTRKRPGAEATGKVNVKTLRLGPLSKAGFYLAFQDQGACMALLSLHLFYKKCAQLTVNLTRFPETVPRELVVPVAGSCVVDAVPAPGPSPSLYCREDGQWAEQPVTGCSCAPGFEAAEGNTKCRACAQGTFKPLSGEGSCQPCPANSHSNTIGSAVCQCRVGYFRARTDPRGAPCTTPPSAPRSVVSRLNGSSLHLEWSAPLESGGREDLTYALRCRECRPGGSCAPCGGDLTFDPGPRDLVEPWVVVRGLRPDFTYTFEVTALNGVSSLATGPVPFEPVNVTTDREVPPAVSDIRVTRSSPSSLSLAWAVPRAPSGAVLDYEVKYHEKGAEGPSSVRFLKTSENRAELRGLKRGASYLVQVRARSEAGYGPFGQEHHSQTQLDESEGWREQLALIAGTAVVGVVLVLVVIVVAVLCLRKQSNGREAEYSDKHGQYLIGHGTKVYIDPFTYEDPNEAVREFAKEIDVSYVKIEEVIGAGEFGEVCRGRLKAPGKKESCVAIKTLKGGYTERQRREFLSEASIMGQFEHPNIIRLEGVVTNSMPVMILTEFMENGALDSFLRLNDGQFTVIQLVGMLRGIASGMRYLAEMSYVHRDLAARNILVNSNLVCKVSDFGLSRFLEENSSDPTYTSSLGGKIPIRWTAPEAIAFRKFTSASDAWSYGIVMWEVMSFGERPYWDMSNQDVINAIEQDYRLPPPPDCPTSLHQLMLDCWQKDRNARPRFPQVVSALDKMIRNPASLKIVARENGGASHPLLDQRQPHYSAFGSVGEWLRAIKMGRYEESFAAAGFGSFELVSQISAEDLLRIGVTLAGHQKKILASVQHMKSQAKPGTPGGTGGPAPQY

[5] = molecular target: T4, Serine/threonine-protein kinase Nek2 (Homo sapiens, UniProt P51955); assay: Inhibition of NEK2
T4 sequence (P51955 whole entry): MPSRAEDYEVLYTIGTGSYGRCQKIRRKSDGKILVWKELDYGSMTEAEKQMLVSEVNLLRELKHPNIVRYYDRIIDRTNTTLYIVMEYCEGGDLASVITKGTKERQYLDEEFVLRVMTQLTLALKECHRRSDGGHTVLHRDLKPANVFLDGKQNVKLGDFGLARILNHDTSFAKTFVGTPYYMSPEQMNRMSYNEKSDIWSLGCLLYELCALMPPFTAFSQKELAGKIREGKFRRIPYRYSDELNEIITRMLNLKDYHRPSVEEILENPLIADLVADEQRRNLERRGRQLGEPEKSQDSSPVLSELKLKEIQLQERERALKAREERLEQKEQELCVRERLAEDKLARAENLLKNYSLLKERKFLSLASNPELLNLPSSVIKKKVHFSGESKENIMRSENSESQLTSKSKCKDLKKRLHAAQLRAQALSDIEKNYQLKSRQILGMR

[6] = molecular target: Aurora kinase B (Homo sapiens, UniProt Q96GD4); assay: Inhibition of Aurora B
Aurora kinase B, sequence (Q96GD4 whole entry): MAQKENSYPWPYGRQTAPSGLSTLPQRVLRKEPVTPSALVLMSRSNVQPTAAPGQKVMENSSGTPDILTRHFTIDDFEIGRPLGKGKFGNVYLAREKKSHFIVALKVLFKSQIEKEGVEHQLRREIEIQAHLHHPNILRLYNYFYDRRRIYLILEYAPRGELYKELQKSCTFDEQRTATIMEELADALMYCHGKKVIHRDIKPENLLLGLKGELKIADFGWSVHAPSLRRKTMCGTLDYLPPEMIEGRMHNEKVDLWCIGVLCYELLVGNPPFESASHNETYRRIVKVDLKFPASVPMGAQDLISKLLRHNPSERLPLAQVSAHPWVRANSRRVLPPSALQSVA

Serine/threonine-protein kinase PLK3, sequence (Q9H4B4 whole entry): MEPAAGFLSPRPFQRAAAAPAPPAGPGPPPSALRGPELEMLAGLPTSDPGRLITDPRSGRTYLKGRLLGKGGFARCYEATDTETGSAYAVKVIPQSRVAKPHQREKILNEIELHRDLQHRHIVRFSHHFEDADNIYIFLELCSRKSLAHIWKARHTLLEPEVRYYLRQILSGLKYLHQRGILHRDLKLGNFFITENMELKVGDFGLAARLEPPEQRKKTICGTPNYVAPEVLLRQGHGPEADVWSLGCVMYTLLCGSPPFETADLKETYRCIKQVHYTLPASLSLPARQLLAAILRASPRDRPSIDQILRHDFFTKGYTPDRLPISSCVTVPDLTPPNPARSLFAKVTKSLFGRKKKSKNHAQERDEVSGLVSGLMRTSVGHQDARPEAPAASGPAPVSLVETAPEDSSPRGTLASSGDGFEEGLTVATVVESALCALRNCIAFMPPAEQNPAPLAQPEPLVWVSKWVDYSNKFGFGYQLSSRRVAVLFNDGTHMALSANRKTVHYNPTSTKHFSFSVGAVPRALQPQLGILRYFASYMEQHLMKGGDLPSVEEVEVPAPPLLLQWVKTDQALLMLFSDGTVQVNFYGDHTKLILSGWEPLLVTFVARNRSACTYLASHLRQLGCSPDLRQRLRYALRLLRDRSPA

Row | IC50 [1] | IC50 [2] | IC50 [3] | IC50 [4] | IC50 [5] | IC50 [6] | SMILES
1 | > 100 nM | > 100 nM | ≤ 4 nM | 100 nM | > 100 nM | ≤ 13 nM | CCN(Cc1cc(Nc2nc(C)cn3c(-c4cn[nH]c4)cnc23)sn1)C(C)(C)CO
2 | > 100 nM | > 100 nM | ≤ 4 nM | 770 nM | > 100 nM | ≤ 13 nM | Cc1cn2c(-c3cn[nH]c3)cnc2c(Nc2cc(CN3CCC(F)(F)C3)ns2)n1.Cl
3 | > 100 nM | > 100 nM | ≤ 4 nM | 700 nM | > 100 nM | ≤ 13 nM | Cl.[2H]C([2H])(c1cc(Nc2nc(C)cn3c(-c4cn[nH]c4)cnc23)sn1)N1CCC(F)(F)C1
